Measured values reported in US20140073694A1, “CYSTAMINE ANALOGUES FOR THE TREATMENT OF PARKINSON'S DISEASE” (UNIVERSITE LAVAL, priority 2011, published 2014).

Tests used:
6-OHDA lesioned mice [1] = experiment: Unilateral striatal 6-OHDA mouse model, neurorescue experiment; format: in vivo, C57BL/6 mice; conditions: 10 mg/kg daily for 14 days from 3 days post-lesion
Protocol: (§1) Young adult (9-week old, 25 grams) male C57BL/6 mice were purchased from Charles River Laboratories (Montréal, QC, Canada). Animals were housed 4 per cage under standard conditions with free access to food and water, randomized and handled under the same conditions by one investigator. All experiments were performed in accordance with the Canadian Council on Animal Care and were approved by the Institutional Committee of the Centre Hospitalier de l'Université Laval (CHUL). Throughout the experiment, the health status of all mice included in the study was closely monitored for weight loss or other signs of health-related issues. All efforts were made to minimize animal pain and discomfort.
(§2) This protocol was based on the unilateral stereotaxic intra-striatal injection of 6-hydroxydopamine (6-OHDA). Intrastriatal administration of 6-OHDA creates a progressive and retrograde degenerative changes in DA neurons of the substantia nigra (Bjorklund et al., 1997; Costantini et al., 2001). Mice were anaesthetized using isoflurane and placed onto a stereotactic frame adapted for mice. 6-OHDA was dissolved at a concentration of 2 μg/μl in 0.9% saline and 0.02% ascorbic acid and 2 μl was injected in the right striatum at a rate of 0.5 μl/min. The needle was left in place for 3 min after the injection before retraction. The injection was performed using an Hamilton syringe according to the stereotaxic co-ordinates: AP: +0.04 cm, ML: −0.18 cm, DV: −0.31 cm (corresponding to the atlas of Allan P. 2008).
To serve as controls, other mice were subjected to the same surgical procedures, but only 2 μl of solvent (0.9% saline and 0.02% ascorbic acid) was injected in the same coordinates. […]
The effects of cystamine on the 6-OHDA toxicity were studied in the following experimental groups: Group I, Sham+Saline; Group II, 6-OHDA+Saline; Group III; Sham+Cystamine; Group IV, 6-OHDA+Cystamine. In total, 40 mice (n=10 per group) were utilized for each experiment, monitored daily for weight variation, and ultimately sacrificed by perfusion 24 hrs after the last cystamine (or vehicle) injection. […]
(§3) Catecholamine quantification by HPLC, TH immunohistochemistry and in situ hybridization for Nurr1 and DAT were conducted as described in Example 1.
Levels of autoradiographic labelling were quantified by computerized densitometry. […] Optical density of the autoradiograms was translated in μCi/g of tissue using ^14C radioactivity standards (ARC 146-^14C standards, American Radiolabelled Chemicals Inc., St. Louis, Mo.). Nurr1 and DAT mRNA levels were measured in the substantia nigra compacta (SNc) using similar antero-posterior levels for all sections. […]

6-OHDA lesioned mice [2] = experiment: Unilateral striatal 6-OHDA mouse model, neurorestoration experiment (behaviour and post-mortem); format: in vivo, C57BL/6 mice
Protocol: as §1, §2
To serve as controls, other mice were subjected to the same surgical procedures, but only 2 μl of solvent (0.9% saline and 0.02% ascorbic acid) was injected in the same coordinates. The study was further divided into 2 distinct experiments: • 1) The neurorescuing effects of cystamine (cystamine dihydrochloride, Sigma, St. Louis, Mo.) in 6-OHDA leisoned mice. For this experiment, the first i.p. injection of 10 mg/kg cystamine was administered 3 days post surgery and the treatment continued daily for 14 days. • 2) The neurorestorative effects of cystamine (cystamine dihydrochloride, Sigma, St. Louis, Mo.) in 6-OHDA lesioned mice. The treatment of cystamine began 3 weeks post surgery, when the dopaminergic (DAergic) lesion is known to be stable and has reached its peak. The treatment was continued daily for 6 weeks.
The effects of cystamine on the 6-OHDA toxicity were studied in the following experimental groups: Group I, Sham+Saline; Group II, 6-OHDA+Saline; Group III; Sham+Cystamine; Group IV, 6-OHDA+Cystamine. In total, 40 mice (n=10 per group) were utilized for each experiment, monitored daily for weight variation, and ultimately sacrificed by perfusion 24 hrs after the last cystamine (or vehicle) injection.
Animals were sacrificed under deep anesthesia with ketamine/xylazine (Vetalar, Bioniche, Belleville, ON/Rompun, Bayer, Toronto, ON). All mice were subjected to intracardiac perfusion with RNAse free 0.1 M phosphate-buffered saline (PBS). After intracardiac perfusion, brains were collected and the posterior brain of each mice, comprising the entire mesencephalon, was post-fixed in 4% PFA for additional immunohistochemistry and in situ hybridization analyses. The anterior brain, comprising the right and left striatum, was snap-frozen and used for HPLC and WB analyses.
as §3
The loss of DAergic neurons was determined by stereological counts of TH-immunoreactive cells (identifiable somas) under bright-field illumination. Every 10th section through the SNc was analyzed using Stereo investigator software (MicroBrighffield, Colchester, Vt., USA) attached to an E800 Nikon microscope (Nikon Canada Inc., Mississauga, ON, Canada). After delineation of the SNc at low magnification (4× objective), a point grid was overlaid onto each section. […]

`NCCSSCCN` [cystamine, Cystamine] was tested, and the “DAT mRNA levels in the SNpc (densitometry)” value (6-OHDA lesioned mice [1]) was “same pattern as observed for the TH staining”, the “Nurr1 mRNA levels in the SNpc (densitometry)” value (6-OHDA lesioned mice [1]) was “same pattern as observed for the TH staining” and the “striatal DA content by HPLC” value (6-OHDA lesioned mice [1]; vs control mice) was “significantly decreased levels of DA only in 6-OHDA mice treated with saline”. The “decrease in the total number of TH-positive neurons in the SNpc” value (6-OHDA lesioned mice [1]; 6-OHDA+cystamine vs sham+cystamine) was 27%, the “restoration of DA content in the lesioned striatum” value (6-OHDA lesioned mice [2]; 10 mg/kg daily for 6 weeks from 3 weeks post-lesion) was “did not significantly restore DA content” and the “cylinder test, limb-use asymmetry (percentage of contralateral contacts)” value (6-OHDA lesioned mice [2]; 10 mg/kg daily for 6 weeks from 3 weeks post-lesion, 6 and 9 weeks post-lesion) was “asymmetry was not visible”. For the same compound, the apomorphine-induced contralateral rotations (6-OHDA lesioned mice [2]; 10 mg/kg daily for 6 weeks from 3 weeks post-lesion, 6 and 9 weeks post-surgery) was “significantly attenuated by the cystamine treatment”, the “decrease of striatal DA levels measured by HPLC” value (6-OHDA lesioned mice [2]; 6-OHDA lesioned mice, 10 mg/kg daily for 6 weeks from 3 weeks post-lesion) was 84% and the “decrease in the total number of TH-positive neurons in the SNpc” value (6-OHDA lesioned mice [2]; 6-OHDA+cystamine vs sham+cystamine, 10 mg/kg daily for 6 weeks from 3 weeks post-lesion) was 65%. For the same compound, the DA turnover (6-OHDA lesioned mice [2]; vs 6-OHDA mice treated with saline) was “strong tendency to normalise the DA turnover”.
